Assay results from US8614206B2 (Genentech, Inc., priority 2011, dated 2013).
Read-outs that look alike come from different tables or passages of the source.

Experiments:
BaF3 parental cells = experiment: In vitro cell proliferation, BaF3 parental line + IL3 (CellTiter-Glo); assay type: cell-based, murine; settings: Mus musculus, BaF3, BaF3 parental cells with IL-3, incubated overnight; read-out: Prolif BaF3 + IL3 (IC50)
[1] = tested on: MM1.S (multiple myeloma) cells; experiment: In vitro cell proliferation, MM1.S multiple myeloma cells (CellTiter-Glo, ATP); assay type: cell-based; settings: read-out: Prolif MM1S ATP (EC50)
Protocol: BaF3, a murine interleukin-3 dependent pro-B cell line, parental cells, BaF3 PIM1 cells, BaF3 PIM2 cells, and MM1.S (multiple myeloma) cells were seeded at 2 k/well, 5 k/well, 5 k/well, and 10 k/well respectively, in a 384-well plate, at 45 μL/well. Test compound was added at 5 μL/well. BaF3 cells (parental and transfected) were incubated overnight, while MM1.S cells were incubated for 72 hours at 37° C., 5% CO2. […] IC50/EC50 values for the test compound were calculated.

PIM1 = PIM1 (Homo sapiens (Human), UniProt P11309); experiment: Pim kinase inhibition, PIM1 LC3K (Example 901); assay type: biochemical
PIM1, sequence (P11309 whole entry): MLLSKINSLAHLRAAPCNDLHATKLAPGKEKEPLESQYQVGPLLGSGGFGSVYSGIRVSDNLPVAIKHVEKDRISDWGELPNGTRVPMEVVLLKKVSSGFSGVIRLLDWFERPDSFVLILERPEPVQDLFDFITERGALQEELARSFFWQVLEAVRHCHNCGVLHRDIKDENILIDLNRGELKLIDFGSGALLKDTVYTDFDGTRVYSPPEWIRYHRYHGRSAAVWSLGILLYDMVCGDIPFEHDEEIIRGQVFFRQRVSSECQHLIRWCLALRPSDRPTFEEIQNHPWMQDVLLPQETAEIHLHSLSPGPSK
Excerpt: Determination of the Pim kinase activity of a Formula I compound is possible by a number of direct and indirect detection methods.

EC50 ([1]; Homo sapiens, MM1.S, 72 h) [nM] | Ki (PIM1) [nM] | EC50 ([1]; 72 hours) [nM] | SMILES | IC50 (BaF3 parental cells) [µM]
1800 |  |  | Cn1ncc(NC(=O)c2nc(-c3c(F)cccc3F)sc2N)c1N1CCCC(C)(N)CC1 (racemic) [Example 411, 5-amino-N-[5-(4-amino-4-methyl-azepan-1-yl)-1-methyl-pyrazol-4-yl]-2-(2,6-difluorophenyl)thiazole-4-carboxamide] | 17.7
 | 0.142 | 5700 | Nc1sc(-c2c(F)cccc2F)nc1C(=O)Nc1cnn(CC(F)F)c1N1CCC(N)C(O)CC1 (single isomer, unassigned) [Example 398, 5-amino-N-[5-(4-amino-5-hydroxy-azepan-1-yl)-1-(2,2-difluoroethyl)pyrazol-4-yl]-2-(2,6-difluorophenyl)thiazole-4-carboxamide] | 
 | 0.018 | 41.9 | Nc1sc(-c2c(F)cccc2F)nc1C(=O)Nc1cnn(CC(F)F)c1N1CCC(N)C(O)CC1 (single isomer, unassigned) [Example 399, 5-amino-N-[5-(4-amino-5-hydroxy-azepan-1-yl)-1-(2,2-difluoroethyl)pyrazol-4-yl]-2-(2,6-difluorophenyl)thiazole-4-carboxamide] | 
5700 |  |  | CO[C@@H]1[C@H](N)CCN(c2c(NC(=O)c3nc(-c4c(F)cccc4F)sc3N)cnn2C)CC12CC2 [Example 516, 5-amino-N-(5-((8R,9S)-8-amino-9-methoxy-5-azaspiro[2.6]nonan-5-yl)-1-methyl-1H-pyrazol-4-yl)-2-(2,6-difluorophenyl)thiazole-4-carboxamide] | 

Continued, compound first:

SMILES | EC50 ([1]; Homo sapiens, MM1.S, 72 h) [nM] | Ki (PIM1) [nM] | EC50 ([1]; 72 hours) [nM] | IC50 (BaF3 parental cells) [µM]
COC1CCN(c2c(NC(=O)c3nc(-c4ncccc4F)sc3N)cnn2C)CCC1N (racemic) [Example 323, 5-amino-N-[5-(4-amino-5-methoxy-azepan-1-yl)-1-methyl-pyrazol-4-yl]-2-(3-fluoro-2-pyridyl)thiazole-4-carboxamide] | 165 |  |  | > 25
CCn1ncc(NC(=O)c2nc(-c3c(F)cccc3F)sc2N)c1N1CCC(N)C(F)CC1 (single isomer, unassigned) [Example 370, 5-amino-N-[5-(4-amino-5-fluoro-azepan-1-yl)-1-ethyl-pyrazol-4-yl]-2-(2,6-difluorophenyl)thiazole-4-carboxamide] | 118 | 0.093 |  | 
CCn1ncc(NC(=O)c2nc(-c3c(F)cccc3F)sc2N)c1N1CCC(N)C(OC)CC1 (single isomer, unassigned) [Example 390, 5-amino-N-[5-(4-amino-5-methoxy-azepan-1-yl)-1-ethyl-pyrazol-4-yl]-2-(2,6-difluorophenyl)thiazole-4-carboxamide] |  | 0.192 | 147 | 
CO[C@H]1CCN(c2c(NC(=O)c3nc(-c4c(F)cccc4F)sc3N)cnn2C2CC2)CC[C@@H]1N [Example 365, 5-amino-N-(5-((4S,5S)-4-amino-5-methoxyazepan-1-yl)-1-cyclopropyl-1H-pyrazol-4-yl)-2-(2,6-difluorophenyl)thiazole-4-carboxamide] | 606 | 0.219 |  | 
Nc1sc(-c2c(F)cccc2F)nc1C(=O)Nc1cnn(CC(F)F)c1N1CC[C@@H](O)[C@@H](N)CC1 [Example 375, 5-amino-N-(5-((4S,5R)-4-amino-5-hydroxyazepan-1-yl)-1-(2,2-difluoroethyl)-1H-pyrazol-4-yl)-2-(2,6-difluorophenyl)thiazole-4-carboxamide] | 70.6 | 0.051 |  | 
Cn1ncc(NC(=O)c2nc(-c3ncccc3F)sc2N)c1N1CC[C@@H](F)[C@@H](N)CC1 [Example 388, 5-amino-N-(5-((4S,5R)-4-amino-5-fluoroazepan-1-yl)-1-methyl-1H-pyrazol-4-yl)-2-(3-fluoropyridin-2-yl)thiazole-4-carboxamide] | 396 | 0.462 |  | 
CCn1ncc(NC(=O)c2nc(-c3ccccc3F)sc2N)c1N1CCC(N)C(OC)CC1 (stereo not drawn) [Example 392, 5-amino-N-[5-(4-amino-5-methoxy-azepan-1-yl)-1-ethyl-pyrazol-4-yl]-2-(2-fluorophenyl)thiazole-4-carboxamide] | 202 | 0.668 |  | 
